Results: ChEMBL document CHEMBL5500422, “New Horizons of Synthetic Lethality in Cancer: Current Development and Future Perspectives” (J Med Chem, 2024)

Columns and labels:
[1] = biological target: T1, Ubiquitin carboxyl-terminal hydrolase 1 (Homo sapiens, UniProt O94782); test: Inhibition of human recombinant USP1 expressed in baculovirus expressed in Bac-to-Bac baculovirus expression system
T1 sequence (O94782 whole entry): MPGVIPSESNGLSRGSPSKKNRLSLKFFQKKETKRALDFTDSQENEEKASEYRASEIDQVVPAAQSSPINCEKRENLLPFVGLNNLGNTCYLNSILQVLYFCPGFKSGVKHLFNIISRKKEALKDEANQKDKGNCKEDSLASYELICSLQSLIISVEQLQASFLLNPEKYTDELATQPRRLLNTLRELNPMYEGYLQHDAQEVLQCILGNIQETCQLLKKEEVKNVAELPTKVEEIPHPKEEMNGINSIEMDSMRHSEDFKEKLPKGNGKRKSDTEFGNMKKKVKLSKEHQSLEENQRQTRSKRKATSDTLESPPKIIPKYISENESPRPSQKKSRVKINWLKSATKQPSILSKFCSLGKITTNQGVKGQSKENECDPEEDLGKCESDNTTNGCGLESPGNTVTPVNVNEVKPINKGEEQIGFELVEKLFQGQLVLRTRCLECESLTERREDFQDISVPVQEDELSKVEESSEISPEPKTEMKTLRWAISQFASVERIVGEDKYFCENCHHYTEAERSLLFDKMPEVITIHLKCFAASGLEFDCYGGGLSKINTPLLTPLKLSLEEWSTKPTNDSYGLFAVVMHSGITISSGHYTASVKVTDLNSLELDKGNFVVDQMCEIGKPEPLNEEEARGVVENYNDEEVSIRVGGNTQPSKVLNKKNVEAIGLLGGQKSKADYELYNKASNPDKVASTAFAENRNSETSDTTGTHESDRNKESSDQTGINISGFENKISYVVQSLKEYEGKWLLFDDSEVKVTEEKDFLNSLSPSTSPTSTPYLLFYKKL

[2] = biological target: T2, DNA repair protein RAD52 homolog (Homo sapiens, UniProt P43351); test: Inhibition of RAD52 (unknown origin) by FRET analysis
T2 sequence (P43351 whole entry): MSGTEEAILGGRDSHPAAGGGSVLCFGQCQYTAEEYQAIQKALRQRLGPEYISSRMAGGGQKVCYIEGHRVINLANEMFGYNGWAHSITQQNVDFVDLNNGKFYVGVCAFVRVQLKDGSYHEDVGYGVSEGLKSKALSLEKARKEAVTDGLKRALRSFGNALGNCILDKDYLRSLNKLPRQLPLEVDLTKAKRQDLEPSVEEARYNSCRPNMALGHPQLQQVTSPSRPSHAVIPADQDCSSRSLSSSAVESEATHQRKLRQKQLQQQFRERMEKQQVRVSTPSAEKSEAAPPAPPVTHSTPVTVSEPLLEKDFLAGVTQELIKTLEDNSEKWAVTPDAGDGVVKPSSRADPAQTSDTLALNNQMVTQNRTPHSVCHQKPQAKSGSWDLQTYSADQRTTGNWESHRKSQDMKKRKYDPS

[3] = Antiproliferative activity against human UWB1289 cells harboring BRCA1 assessed inhibition of cell growth incubated for 48 hrs by MTT assay; type: functional, cell-based; settings: UWB1289, 48 h
[4] = biological target: von Hippel-Lindau disease tumor suppressor/SWI/SNF-related matrix-associated actin-dependent regulator of chromatin subfamily A member 4 (Homo sapiens) (UniProt P51532+P40337); test: PROTAC activity at VHL/SMARCA4 in human MV4-11 cells assessed as induction of SMARCA4 degradation by measuring maximal efficacy incubated for 18 hrs by Western blotting analysis relative to control; type: cell-based
[5] = biological target: von Hippel-Lindau disease tumor suppressor/SWI/SNF-related matrix-associated actin-dependent regulator of chromatin subfamily A member 2 (Homo sapiens) (UniProt P51531+P40337); test: PROTAC activity at VHL/SMARCA2 in human NCI-H838 cells assessed as induction of SMARCA2 degradation at 0.001 to 1000 nM incubated for 24 hrs by Western blotting analysis relative to control; type: cell-based; settings: dose 0.001-1000 nM
[6] = Intrinsic clearance in mouse liver microsomes; type: ADME, Microsome
[7] = system: LoVo; test: Antiproliferative activity against human LoVo cells assessed as reduction in cell viability measured for 48 hrs byT assay; type: functional, cell-based
[8] = Intrinsic clearance in human liver microsomes; type: ADME, Microsome
[9] = system: HEK293; test: Antiproliferative activity against HEK293 cells assessed as inhibition of cell growth incubated for 48 hrs by CCK8 assay; type: functional, cell-based; settings: Homo sapiens, HEK293, 48 h
[10] = biological target: DNA-dependent protein kinase catalytic subunit (Homo sapiens, UniProt P78527)
Sequence of DNA-dependent protein kinase catalytic subunit (P78527 whole entry): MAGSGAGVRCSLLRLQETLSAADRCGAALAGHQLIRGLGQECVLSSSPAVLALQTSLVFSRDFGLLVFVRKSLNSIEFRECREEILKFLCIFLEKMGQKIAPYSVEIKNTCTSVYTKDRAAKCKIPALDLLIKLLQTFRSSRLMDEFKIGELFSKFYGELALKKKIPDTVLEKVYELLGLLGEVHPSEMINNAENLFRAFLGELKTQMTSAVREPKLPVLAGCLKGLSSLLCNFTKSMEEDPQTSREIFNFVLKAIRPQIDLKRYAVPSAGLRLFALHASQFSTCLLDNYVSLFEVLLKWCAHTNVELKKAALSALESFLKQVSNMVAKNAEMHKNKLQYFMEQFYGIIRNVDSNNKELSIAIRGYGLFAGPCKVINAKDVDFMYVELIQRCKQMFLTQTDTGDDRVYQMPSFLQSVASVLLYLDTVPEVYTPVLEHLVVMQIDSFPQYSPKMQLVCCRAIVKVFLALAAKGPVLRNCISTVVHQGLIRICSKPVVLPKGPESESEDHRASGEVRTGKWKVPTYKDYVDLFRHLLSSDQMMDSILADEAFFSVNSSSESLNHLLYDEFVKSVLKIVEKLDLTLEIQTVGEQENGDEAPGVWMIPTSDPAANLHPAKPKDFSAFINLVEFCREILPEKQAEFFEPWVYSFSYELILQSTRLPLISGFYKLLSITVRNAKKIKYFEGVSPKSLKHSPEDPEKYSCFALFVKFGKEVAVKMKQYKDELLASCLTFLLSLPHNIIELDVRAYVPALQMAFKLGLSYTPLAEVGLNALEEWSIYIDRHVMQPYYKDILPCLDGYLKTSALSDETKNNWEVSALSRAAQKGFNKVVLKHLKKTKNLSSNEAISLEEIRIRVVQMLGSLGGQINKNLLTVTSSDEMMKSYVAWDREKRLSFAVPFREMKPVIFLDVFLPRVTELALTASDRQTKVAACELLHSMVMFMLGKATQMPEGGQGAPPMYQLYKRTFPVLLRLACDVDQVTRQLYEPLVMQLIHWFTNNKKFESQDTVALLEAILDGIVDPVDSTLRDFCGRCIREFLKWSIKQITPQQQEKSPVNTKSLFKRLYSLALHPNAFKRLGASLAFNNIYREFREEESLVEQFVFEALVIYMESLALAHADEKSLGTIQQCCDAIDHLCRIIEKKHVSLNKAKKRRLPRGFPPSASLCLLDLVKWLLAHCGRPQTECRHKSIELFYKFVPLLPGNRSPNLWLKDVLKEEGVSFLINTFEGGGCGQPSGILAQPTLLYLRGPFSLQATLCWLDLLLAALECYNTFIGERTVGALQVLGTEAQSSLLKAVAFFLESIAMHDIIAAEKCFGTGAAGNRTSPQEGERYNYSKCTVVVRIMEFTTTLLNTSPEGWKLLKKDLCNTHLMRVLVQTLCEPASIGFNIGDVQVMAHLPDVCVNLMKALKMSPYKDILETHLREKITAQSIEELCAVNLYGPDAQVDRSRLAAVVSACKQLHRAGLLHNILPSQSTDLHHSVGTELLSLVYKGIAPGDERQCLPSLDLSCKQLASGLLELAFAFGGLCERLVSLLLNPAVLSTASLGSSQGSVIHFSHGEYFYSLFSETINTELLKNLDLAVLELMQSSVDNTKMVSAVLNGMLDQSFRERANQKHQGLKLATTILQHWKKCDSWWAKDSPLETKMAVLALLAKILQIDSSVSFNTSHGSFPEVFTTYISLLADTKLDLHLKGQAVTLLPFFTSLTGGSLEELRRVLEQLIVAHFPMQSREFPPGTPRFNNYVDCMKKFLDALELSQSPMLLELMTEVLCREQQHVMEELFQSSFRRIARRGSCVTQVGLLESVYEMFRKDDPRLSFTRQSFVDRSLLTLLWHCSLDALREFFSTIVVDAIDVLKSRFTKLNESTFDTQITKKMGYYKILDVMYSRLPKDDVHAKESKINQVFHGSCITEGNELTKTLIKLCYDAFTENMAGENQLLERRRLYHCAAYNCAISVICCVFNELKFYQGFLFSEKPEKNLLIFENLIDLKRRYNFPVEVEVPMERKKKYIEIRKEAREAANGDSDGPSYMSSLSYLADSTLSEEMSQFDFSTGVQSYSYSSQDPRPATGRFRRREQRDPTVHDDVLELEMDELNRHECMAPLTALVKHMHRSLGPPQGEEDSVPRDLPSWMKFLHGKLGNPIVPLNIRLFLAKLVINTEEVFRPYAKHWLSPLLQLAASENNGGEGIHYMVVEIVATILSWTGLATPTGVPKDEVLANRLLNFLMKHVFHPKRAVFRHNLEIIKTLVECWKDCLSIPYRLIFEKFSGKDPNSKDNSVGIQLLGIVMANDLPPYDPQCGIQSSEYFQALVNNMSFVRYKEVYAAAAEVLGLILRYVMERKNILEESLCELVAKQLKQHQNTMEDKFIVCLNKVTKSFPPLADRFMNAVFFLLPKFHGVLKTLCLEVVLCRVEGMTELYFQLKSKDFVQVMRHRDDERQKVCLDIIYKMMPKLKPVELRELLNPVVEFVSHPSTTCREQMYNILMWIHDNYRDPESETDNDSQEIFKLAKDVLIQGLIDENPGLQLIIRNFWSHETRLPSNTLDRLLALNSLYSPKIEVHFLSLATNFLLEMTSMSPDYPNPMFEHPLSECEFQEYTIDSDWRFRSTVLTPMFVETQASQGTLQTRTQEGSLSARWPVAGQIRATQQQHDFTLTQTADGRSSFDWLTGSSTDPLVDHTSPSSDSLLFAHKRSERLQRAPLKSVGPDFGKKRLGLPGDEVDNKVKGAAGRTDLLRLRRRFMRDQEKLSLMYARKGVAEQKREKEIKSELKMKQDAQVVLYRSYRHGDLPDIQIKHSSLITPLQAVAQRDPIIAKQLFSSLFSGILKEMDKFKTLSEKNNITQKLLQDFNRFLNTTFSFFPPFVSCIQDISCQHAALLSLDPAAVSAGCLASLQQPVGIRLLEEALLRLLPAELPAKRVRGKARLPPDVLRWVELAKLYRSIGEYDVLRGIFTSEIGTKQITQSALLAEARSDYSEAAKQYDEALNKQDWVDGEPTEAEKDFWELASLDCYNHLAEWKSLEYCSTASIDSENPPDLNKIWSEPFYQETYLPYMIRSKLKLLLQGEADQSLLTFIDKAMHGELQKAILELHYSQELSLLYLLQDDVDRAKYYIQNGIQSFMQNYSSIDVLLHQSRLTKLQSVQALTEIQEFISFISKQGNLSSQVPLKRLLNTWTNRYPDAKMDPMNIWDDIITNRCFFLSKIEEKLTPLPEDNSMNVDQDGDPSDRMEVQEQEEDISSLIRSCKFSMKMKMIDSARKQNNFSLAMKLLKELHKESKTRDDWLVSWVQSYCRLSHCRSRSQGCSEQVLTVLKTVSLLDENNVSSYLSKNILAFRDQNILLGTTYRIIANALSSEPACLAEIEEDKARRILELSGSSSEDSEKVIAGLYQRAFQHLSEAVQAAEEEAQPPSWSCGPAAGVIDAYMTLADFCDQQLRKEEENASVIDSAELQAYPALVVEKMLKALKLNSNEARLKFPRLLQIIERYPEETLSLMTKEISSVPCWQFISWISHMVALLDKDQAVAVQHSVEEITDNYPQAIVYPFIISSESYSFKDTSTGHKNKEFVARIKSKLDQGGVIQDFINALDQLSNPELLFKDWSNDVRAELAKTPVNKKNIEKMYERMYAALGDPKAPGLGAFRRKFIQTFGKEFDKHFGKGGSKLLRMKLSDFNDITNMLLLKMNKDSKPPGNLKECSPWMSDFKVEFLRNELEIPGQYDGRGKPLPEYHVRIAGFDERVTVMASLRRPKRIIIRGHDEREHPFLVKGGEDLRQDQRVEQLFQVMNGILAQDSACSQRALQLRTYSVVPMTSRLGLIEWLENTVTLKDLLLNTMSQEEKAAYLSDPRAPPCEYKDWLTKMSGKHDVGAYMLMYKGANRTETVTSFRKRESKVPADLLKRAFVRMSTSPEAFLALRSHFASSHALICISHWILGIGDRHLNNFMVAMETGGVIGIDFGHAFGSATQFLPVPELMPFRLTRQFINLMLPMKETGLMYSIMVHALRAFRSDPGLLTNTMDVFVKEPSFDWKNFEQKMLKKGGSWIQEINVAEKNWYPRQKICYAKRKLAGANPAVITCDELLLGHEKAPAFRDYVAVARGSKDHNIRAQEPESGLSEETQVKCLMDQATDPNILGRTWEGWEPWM
Description: Inhibition of DNA-PK in human HCT-116 cells measured after 1 hr by Bradford assay

## CC(C)c1ccccc1-c1ncc2[nH]c(=O)n(Cc3ccc(-c4nc(C(F)(F)F)cn4C)cc3)c2n1
[1]
  IC50: 4.1 nM

## O=C(Cn1cccc([N+](=O)[O-])c1=O)c1c[nH]c2ccccc12
[2]
  IC50: 2000 nM

## Cc1cccc(N(C)C(=O)[C@@H]2[C@H](O)CCN2c2nc(C)cc(C(F)(F)F)c2C#N)c1
[3]
  IC50: 7.9 nM

## Cc1ncsc1-c1ccc([C@H](CC[C@H](C)CCN2CCC(c3ccc4c(c3)n(C3CCCC3)c3nc(=O)c5c(Br)cccc5n43)CC2)NC(=O)[C@@H]2C[C@@H](O)CN2C(=O)[C@@H](NC(=O)C2(F)CC2)C(C)(C)C)cc1
[4]
  Emax: 67%
[5]
  Emax: 81%

## Cn1c(=O)c2cc(S(=O)(=O)NC3(C)CC3)ccc2n(C)c1=O
[6]
  CLH: 211 µL/min/mg

## Nc1nn2cc(F)cnc2c1C(=O)Nc1cncc(F)c1N1CCC(C(=O)N2CCN(C3COC3)CC2)CC1 [M4344]
[7]
  IC50: 86 nM

## Cc1ncc(Cn2c(=O)c3cc(S(=O)(=O)NC4(C)CC4)ccc3n(CC3CC3)c2=O)s1
[8]
  CLH: 78 µL/min/mg

## C[C@@H]1COCCN1c1cc(N=[S@@](C)(=O)C2CC2)nc(-c2ccnc(N)c2)n1
[9]
  IC50: 7900 nM

## CC(C)NCCOc1ncc(-c2cc3c4c(cnc3cc2F)N(C)C(=O)C42CCC2)cc1NS(C)(=O)=O
[10]
  IC50: 0.89 nM

## COc1ccccc1NS(=O)(=O)c1cc(C(=O)O)ccc1C
[2]
  IC50: 2000 nM
